This data set in a line: solvent given as SMILES.

Data on 22 molecules can be found in the Deep4Chem optical property database.

Molecules are shown by their SMILES.

On to `O=c1c2ccccc2sc2ccc(-n3c4ccccc4c4ccccc43)cc12`, for which the emission maximum came out at 452.5 nm (in C1CCOC1); 436 nm (in CCCCCC); 447.5 nm (in Cc1ccccc1); 486.5 nm (in ClC(Cl)Cl); 483.5 nm (in ClCCl). As to `COc1ccc(C2=C3C=C(/C=C/C(=O)OC(C)(C)C)C=[N+]3[B-](F)(F)n3cccc32)cc1`, under “in ClCCl”, the emission maximum is 572 nm.

Consider `C[Si]1(C)C2=CC(=[N+]3CCC3)C=C(F)C2=Nc2c(F)cc(N3CCC3)cc21`, for which the emission maximum (in CCO) stood at 719 nm. In the case of `Cc1cc(-c2nc(-c3ccccc3)nc(-c3ccccc3)n2)cc(C)c1N1c2ccccc2CCc2ccccc21`, where the note is “in Cc1ccccc1”, the emission maximum is 475.79 nm. The molecule `CC(C)(C)c1ccc(C2=C(c3ccc(N4c5ccccc5C(C)(C)c5ccccc54)cc3)S(=O)(=O)c3c2sc(-c2ccc(N4c5ccccc5C(C)(C)c5ccccc54)cc2)c3-c2ccc(C(C)(C)C)cc2)cc1` showed an emission maximum (in C1CCOC1) of 581 nm. Take `Cc1cc(-c2ccc(N(c3ccccc3)c3ccccc3)cc2)c2nsnc2c1-c1ccc(C(C)(C)C)cc1`: the emission maximum (in ClCCl) stood at 575 nm. `[NH3+]c1ccc2ccc([O-])cc2c1` showed an emission maximum (in O) of 425 nm. The molecule `CCOC(=O)/C=C/c1cc2ccc(-c3cn(Cc4ccccc4)nn3)cc2oc1=O` came in with an emission maximum (in CCO) of 435 nm.

As for `c1ccc(-c2cc(-c3nnc(-c4ccc(N5c6ccccc6Oc6ccccc65)cc4)o3)c(-c3ccccc3)c(-c3ccccc3)c2-c2ccccc2)cc1`, the emission maximum turned out to be 495 nm (in Cc1ccccc1) and 495 nm (in c1ccc(-n2c(-c3c(-n4c5ccccc5c5ccccc54)cccc3-n3c4ccccc4c4ccccc43)nc3ccccc32)cc1). As for `F[B-]12OC(c3ccccc3)=Nc3cccc([n+]31)N=C(c1ccccc1)O2`, the emission maximum (in ClCCl) was 456 nm. With `COc1ccc2cc(C3=[N+]4C(=Nc5c(-c6ccc7ccccc7c6)cc(-c6ccc7cc(OC)ccc7c6)n5[B-]4(F)F)C(c4ccc5ccccc5c4)=C3)ccc2c1`, the emission maximum (in ClCCl) was 754 nm. Molecule `CCCCn1c(=O)c2cc3ccc4cccc5ccc(c2c1=O)c3c45` registered an emission maximum (in ClC(Cl)Cl) of 460 nm. In the case of `F[B-]1(F)n2c(-c3cccs3)cc(-c3cccs3)c2N=C2C(c3cccs3)=CC(c3cccs3)=[N+]21`, the emission maximum reads like this: (in C1CCOC1) 763 nm; (in CC#N) 757 nm; (in CS(C)=O) 775 nm; (in Cc1ccccc1) 765 nm; (in ClCCl) 764 nm.

In turn, `c1ccc(-c2c3c(cc4c2-c2ccccc2C4)-c2ccccc2C3)cc1` had an emission maximum (in C1CCCCC1) of 364 nm. On to `COc1ccc(C2=[N+]3C(=Nc4c(C)cc(-c5ccc(OC)cc5)n4[B-]3(F)F)C(C)=C2)cc1`, for which the emission maximum (in CS(C)=O) turned out to be 692 nm. For the molecule `O=P1(c2ccccc2)C2=C(c3ccccc31)S(=O)(=O)c1ccccc12` (stereo unspecified), the emission maximum runs as follows: (in C1CCCCC1) 453 nm; (in CC#N) 465 nm; (in CCO) 471 nm; (in ClCCl) 466 nm. For `C=CCOc1ccc(-c2nc3cc(C(NC(=O)OC(C)(C)C)C(=O)OC)ccc3o2)cc1` (stereo unspecified), the emission maximum by setting is: (in CC1CCCCC1) 329 nm; (in CC#N) 333 nm; (in CO) 353 nm. For `O=[N+]([O-])c1ccc(/C=C/c2nc3c4ccccc4c4ccccc4c3o2)cc1`, the emission maximum (in CC#N) was determined as 602 nm. With `O=c1[nH]c(=O)c2scc([C@H]3C[C@H](O)[C@@H](CO)O3)c2[nH]1`, the emission maximum runs as follows: (in CC#N) 345 nm; (in CCOC(C)=O) 343 nm; (in CO) 351 nm; (in O) 351 nm. As to `c1ccc(-c2nc(-c3ccccc3)nc(-c3ccc(-n4c5ccccc5c5cc6c(cc54)C4c5ccccc5C6c5ccccc54)cc3)n2)cc1`, the emission maximum reads like this: (in Cc1ccccc1) 432 nm; (in O=P(c1ccccc1)(c1ccccc1)c1ccccc1Oc1ccccc1P(=O)(c1ccccc1)c1ccccc1) 457 nm. Take `C=Cc1ccc(OC)cc1`: the emission maximum amounted to 322 nm (in C1CCCCC1) and 323 nm (in CC#N). For `COc1ccc(C2=C(c3ccc(C)cc3)C(c3ccccc3)=[N+]3C2=Nc2c(-c4ccc(OC)cc4)c(-c4ccc(C)cc4)c(-c4ccccc4)n2[B-]3(F)F)cc1`, the emission maximum (in Cc1ccccc1) is 709 nm.
